According to patent US12728126B2, “Compounds for inhibiting LY6K and methods of using same” (The Henry M. Jackson Foundation for the Advancement of …, priority 2020, dated 2026):

How the values were obtained:
E0771 tumors = assay: E0771 mammary tumor in syngeneic C57Bl/6 model, tumor growth and re-challenge; assay type: in vivo, C57BL6 mice
Procedure: Treatment of E0771 tumors in a syngeneic C57Bl/6 model with compounds described herein reduced tumor growth, while combination treatment with the two small molecules completely eliminated tumor growth. The treatment was halted after tumor disappearance. Three weeks later, the cured mice were re-challenged with E0771 tumor cells, with complete, durable protection against tumor growth.
In another study, syngeneic female C57BL6 mice were injected with mammary tumor cell line E0771 in the 4th mammary gland. After tumors were palpable, they were injected intra-peritoneal injection every 3rd day at 10 mg/kg. The tumor measurements were performed with caliper method. 5 out of 5 control mice continued to sustained tumor growth. […] The drug treatment was stopped after the resolve of the tumors. The cured mice (three out of five) were kept under observation for one month. These mice were re-challenged with E0771 tumor cell inoculation into mammary gland. A control naïve group of C57BL6 were simultaneous inoculated with same batch of E0771 tumor cells in to mammary gland. Tumor progression was monitored in both group. […] Tumor volume was measured in mm^3. Thus, Compound I treatment resolves tumor and induces anti-tumor immunity.

TGFβ1/Smad2/3 signaling = assay: Western blot of TGFβ1 induced phosphorylation of Smad2/3; assay type: cell-based; conditions: serum starved, TGFβ1 (10 ng/mL), 2 μM, 30 minutes
Procedure: Cells were serum starved overnight and then treated with TGF 13 (10 ng/mL) or IFN γ (100 ng/mL) in the presence of 2 μM NSC243928 or NSC11150 for 30 minutes followed by protein analysis using western blot. […] NSC243928 inhibited the TGFβ1 induced phosphorylation of Smad2/3; NSC11150 had no effect on TGFβ1/Smad2/3 signaling. NSC11150 inhibited IFNγ induced phosphorylation of Stat1; NSC243928 had no effect on IFNγ/Stat1 signaling.

PD-L1 = PD-L1 protein expression in control cells; assay type: cell-based; conditions: 2 μM
[1] = test system: Myeloid-derived suppressor cells (MDSCs); assay: MDSCs (Cd11b and Gr1 dual positive cells) in peripheral blood of 4T1 tumor bearing mice, flow cytometry; assay type: in vivo; conditions: three doses of 50 mg/kg
Procedure: Myeloid-derived suppressor cells (MDSCs) are a major cell type which suppress the anti-tumor response. Cd11b and Gr1 dual positive cells in lymphocytes from peripheral blood from 4T1 tumor bearing mice received Compound I and the control group (10 mice in each group).
Three doses of Compound I (50 mg/kg) was injected via intravenously and intraperitoneally, and intravenous and peripheral blood was collected. Freshly isolated lymphocytes were stained with Cd11b and Gr-1 and a dye which can discriminated live and dead cells. The flow cytometry analysis for dual positivity was performed by gating on the live cells.

4T1 mammary cells = assay: Cell cycle analysis of 4T1 cells (DAPI, flow cytometry); assay type: cell-based, mouse
Procedure: 4T1 mammary cells were plated at the same cell density. Cells were serum starved overnight. They were supplemented with medium containing 10% serum with or without indicated doses of the Compound I for 16 hours. Cells were washed with PBS to remove floating cells. Cells were collected by trypsinization and centrifugation. Cell were fixed with methanol and counted. Equal number of cells were stained with 5 mM DAPI and flow cytometry was performed on Cytoflex and for flowjo was used for cell cycle analysis.

4T1 mammary cancer cells = assay: beta gal cellular senescence assay; assay type: cell-based, mouse
Procedure: 4T1 mammary cancer cells show lack of contact inhibited cell growth, i.e. the cells can grow on top of each other. 4T1 mammary cells were plated at the same cell density. Cells were serum starved overnight. They were supplemented with medium containing 10% serum with or without indicated doses of the Compound I for 16 hours.
It is thus contemplated that treatment with Compound I may lead to suppression of active proliferation, and one of such mechanisms is by induction of cellular senescence. Thus, a beta gal cellular senescence assay was carried out.

caspase 3 = assay: Western blot of caspase 3 activation in 4T1 cells; assay type: cell-based, mouse; conditions: 0.1 μM, 1.0 μM or 5.0 μM, 16 hours
Procedure: Cancer cells accumulate various mutations in their genome, yet they are protected against DNA damage induced apoptosis. Poly (ADP-ribose) polymerase (PARP) is a protein which facilitates DNA repair, genomic stability, and inhibits programmed cell death. PARP proteins are inactivated by cleavage of caspase 3 and caspase 7 in vivo. PARP inactivation cleavage and caspase activation by western blot was studied.
(§1) 4T1 mammary cells were plated at the same cell density. Cells were serum starved overnight. They were supplemented with medium containing 10% serum with or without doses of Compound I (0.1 μM, 1.0 μM or 5.0 μM) and for 16 hours. Equal quantity of protein was loaded for western blot analysis.

LC3B = assay: Western blot of autophagy marker LC3B in 4T1 cells; assay type: cell-based, mouse; conditions: 0.1 μM, 1.0 μM or 5.0 μM, 16 hours
Procedure: as §1

[2] = E0771, intra-peritoneal, every 3rd day, 10 mg/kg

`CCS(=O)(=O)Nc1ccc(Nc2c3ccccc3nc3ccccc23)c(OC)c1` [Compound I, N-(4-(acridin-9-ylamino)-3-methoxyphenyl)ethanesulfonamide] was tested, and the “treated mice with complete resolve of mammary tumor” value (E0771 tumors; [2]) was 3 out of 5, the “treated mice with partial response” value (E0771 tumors; [2]) was 2 out of 5 and the “cured mice that remained immune to tumor cells on re-challenge” value (E0771 tumors; re-challenged with E0771 after one month observation) was “Three out of three”. The “TGFβ1 induced phosphorylation of Smad2/3” value (TGFβ1/Smad2/3 signaling) was “inhibited”, the PD-L1 protein expression (PD-L1) was “did not show significant effect” and the “lower MDSCs in peripheral blood of treated mice” value [1] was “more than 90%”. The “Cd11b and Gr-1 dual positive cells in treated group” value ([1]; gated on live cells) was “significantly lower”, the concentration of maximum apoptosis (4T1 mammary cells) was 5 µM and the concentration of maximum cell cycle arrest (4T1 mammary cells) was 1 µM. For the same compound, the “% of cells in singlet population, 4 n” value (4T1 mammary cells; 1.0 μM, 16 hours) was 47.3%, the “% of cells in singlet population, G1” value (4T1 mammary cells; 1.0 μM, 16 hours) was 1.84% and the “% of cells in singlet population, G2” value (4T1 mammary cells; 1.0 μM, 16 hours) was 39.8%. For the same compound, the “% of cells in singlet population, S” value (4T1 mammary cells; 1.0 μM, 16 hours) was 2.27%, the “% of cells in singlet population, Sub G1” value (4T1 mammary cells; 1.0 μM, 16 hours) was 0.59% and the cell cycle arrest (4T1 mammary cells; 1.0 μM, 16 hours) was “cell cycle arrest in G2 phase-2n phase”. For the same compound, the apoptosis (4T1 mammary cells; 5.0 uM, 16 hours) was “massive apoptosis”, the cell cycle arrest (4T1 mammary cells; 5.0 uM, 16 hours) was “paused in G1 state” and the “% of cells in singlet population, 4 n” value (4T1 mammary cells; 5.0 μM, 16 hours) was 0.024%. The “% of cells in singlet population, G1” value (4T1 mammary cells; 5.0 μM, 16 hours) was 67.5%, the “% of cells in singlet population, G2” value (4T1 mammary cells; 5.0 μM, 16 hours) was 0.35% and the “% of cells in singlet population, S” value (4T1 mammary cells; 5.0 μM, 16 hours) was 2.41%. For the same compound, the “% of cells in singlet population, Sub G1” value (4T1 mammary cells; 5.0 μM, 16 hours) was 7.38%, the “cell density in senescence assay” value (4T1 mammary cancer cells; 5.0 μM) was “cells density was very low” and the “induction of cellular senescence” value (4T1 mammary cancer cells; 0.001 to 1.0 μM) was “strong induction of cellular senescence”. The “caspase 3 activation” value (caspase 3) was “activated” and the “marker of autophagy LC3B” value (LC3B) was “activated”.
